Source: paper PMC7558282, “The Anticancer Activity for the Bumetanide-Based Analogs via Targeting the Tumor-Associated Membrane-Bound Human Carbonic Anhydrase-IX Enzyme” (Pharmaceuticals, 2020)
Values joined by “and” are separate entries in the source; they are usually repeats but may differ in a detail not shown here. Equal entries are not always repeated.

Assays:
hCA-II = hCA-II (Homo sapiens, UniProt P00918); test: colorimetric CA-inhibition assay based on CA-esterase activity, hCA-II; conditions: hCA-II IC50, three replicate experiments; N/D = non-detected IC50 within the range of the tested concentrations
Experimental: (§2) Based on the kit manufacturer’s protocol, the candidate inhibitors were dissolved in DMSO at 10 × highest final test concentration and specific aliquots of such working dilutions were incubated with the target hCA isozyme for 10 min at room temperature prior to permit the formation of the enzyme-inhibitor complex. Triplicate experiments were performed for each candidate inhibitor concentration. Parallel wells of solvent and enzyme controls were prepared to test the solvent impact upon the activity of the target enzyme. […] Following incubation, the CA-substrate was added and changes in absorbance (at 405 nm) were monitored for 60 min at room temperature within the kinetic mode. The negative enzyme control wells (without added compounds) were arbitrarily set as 100% enzyme activity. […] Absorbance readings from background wells were subtracted from the compound assay wells in order to account for background hydrolysis activity caused by the buffer solution [44, 45].

hCA-IX [1] = biological target: T1, hCA-IX (Homo sapiens, UniProt Q16790); test: colorimetric CA-inhibition assay based on CA-esterase activity, hCA-IX; conditions: for IC50: hCA-IX IC50, three replicate experiments; for Selectivity Ratio II/IX: ratio of IC50 values for isozyme CA-II relative to CA-IX
Experimental: as §2

[2] = test system: A-498 kidney carcinoma cells; test: MTT cell proliferation assay, A-498; type: cell-based, human; conditions: ±SEM
Experimental: (§1) Cells were cultured in 96-well plate, at cell density of 1.2–1.8 × 10^4 cells/well, using Dulbecco’s Modified Eagle Medium (Invitrogen^TM, Carlsbad, CA, USA) supplemented with 10% (w/v) fetal bovine serum (Hyclone^TM, Marlborough, MA, USA), 10 ug/mL of insulin (Sigma-Aldrich^TM, St. Louis, MO, USA), and 1% (w/v) penicillin-streptomycin (Sigma-Aldrich^TM, St. Louis, MO, USA). Following 24h-incubation period under 5% CO2 at 37 °C, cells were treated with compounds’ serial concentrations (0.1 µM–100 µM) in DMSO, where the DMSO final concentration in the culture medium never exceeded 0.2% (v/v). Subsequently, the treated microplates were incubated for 48 h at 5% CO2/37 °C prior to examination under the inverted microscope and proceeding for the MTT assay. The culture medium was discarded and 100 µL of complete medium comprising 5 mg/mL MTT dye were dispensed within every well, then plates were reincubated for 2 h at 5% CO2/37 °C. […] Color intensity within each well was measured spectrophotometrically using the ROBONIK-P2000® ELISA microplate reader (Bio-Tek^TM, Winooski, VT, USA) at 450 nm while subtracting the background absorbance of multi well plates at 690 nm. The experiment was conducted in triplicates and IC50 values were estimated through linear regression between the logarithm-transformed compound concentrations and corresponding % cell viability = (mean absorbance in test wells/mean absorbance in control wells) ∗ 100, having the response variable slope (four parameters) for all samples.

[3] = test system: SCaBER bladder squamous cell carcinoma cells; test: MTT cell proliferation assay, SCaBER; type: cell-based; conditions: Homo sapiens, 48 h, ±SEM
Experimental: as §1

[4] = biological target: tumor-associated hCA isoforms; set-up: method as in PMID 18600270, PMID 18374572; conditions: cited from earlier work
mitochondrial hCAs = biological target: mitochondrial hCAs; set-up: method as in PMID 18600270, PMID 18374572; conditions: read-out: inhibition for mitochondrial hCAs (moderate); cited from earlier work
cytosolic hCAs = biological target: cytosolic hCAs; set-up: method as in PMID 18600270, PMID 18374572; conditions: read-out: inhibition for cytosolic hCAs (weak); cited from earlier work
hCA-IX [5] = biological target: T1, hCA-IX; set-up: purchased BPS Bioscience 71101; conditions: compared with compound 2; no reference given; cited from earlier work

Row | Structure (SMILES) | IC50 (hCA-II) | IC50 (hCA-IX [1]) | Selectivity Ratio II/IX (hCA-IX [1]) | further results
1 | CCCCNc1cc(C(=O)n2nc(C)cc2-c2ccccc2)cc(S(N)(=O)=O)c1Oc1ccccc1 [Compound 6b] | 858 nM | 5.43 nM | 158.9 | –
2 | C=CCNC(=S)NNC(=O)c1cc(NCCCC)c(Oc2ccccc2)c(S(N)(=O)=O)c1 [Compound 7b] | 1340 nM | 14.4 nM | 93.4 | –
3 | CCCCNc1cc(C(=O)O)cc(S(N)(=O)=O)c1Oc1ccccc1 [Bumetanide, bumetanide] | – | – | – | Ki on the tumor-associated hCA isoforms [4]: 21.1 to 25.8 nM; Ki (mitochondrial hCAs): 250 to 700 nM; Ki (cytosolic hCAs): 2570 to 6980 nM; hCA-IX inhibition of bumetanide (hCA-IX [5]): ~ 23 nM
4 | CCCCNc1cc(C(=O)OC)cc(S(N)(=O)=O)c1Oc1ccccc1 [Compound 2, bumetanide methyl ester] | 668 nM | 23.7 nM | 28.1 | –
5 | CCCCNc1cc(-c2n[nH]c(=S)o2)cc(S(N)(=O)=O)c1Oc1ccccc1 [Compound 5] | 486 nM | 12.4 nM | 39.0 | –
6 | CCCCNc1cc(C(=O)N2N=CCC2=O)cc(S(N)(=O)=O)c1Oc1ccccc1 [Compound 4] | 1050 nM | 16.4 nM | 63.9 | –
7 | CCCCNc1cc(C(=O)NNC(=S)Nc2ccc(Br)cc2)cc(S(N)(=O)=O)c1Oc1ccccc1 [Compound 7c] | 1540 nM | 12.9 nM | 118.9 | –
8 | CCCCNc1cc(C(=O)NNC(=S)Nc2ccccc2)cc(S(N)(=O)=O)c1Oc1ccccc1 [Compound 7a] | 1570 nM | 17.7 nM | 88.6 | –
9 | CCCCNc1cc(C(=O)NN)cc(S(N)(=O)=O)c1Oc1ccccc1 [Compound 3, bumetanide hydrazide] | 1610 nM | 7.87 nM | 205.1 | –
10 | CCCCNc1cc(C(=O)n2nc(C)cc2C)cc(S(N)(=O)=O)c1Oc1ccccc1 [Compound 6a] | – | 16.6 nM | – | –

Now from value to compound, other results behind:

Row | IC50 (hCA-II) | IC50 (hCA-IX [1]) | Selectivity Ratio II/IX (hCA-IX [1]) | Structure (SMILES) | further results
11 | 784 nM | > 7 nM and 7.18 nM | 109.2 | CCCCNc1cc(C(=O)N/N=c2\scc(-c3ccc(Cl)cc3)n2-c2ccc(Br)cc2)cc(S(N)(=O)=O)c1Oc1ccccc1 [Compound 8g] | –
12 | 251 nM | 6.53 nM | 38.6 | CCCCNc1cc(C(=O)N/N=c2\scc(-c3ccc(Cl)cc3)n2-c2ccccc2)cc(S(N)(=O)=O)c1Oc1ccccc1 [Compound 8a] | IC50 ([2]; 48 h): 15700 ± 630 nM; IC50 ([2]; Homo sapiens, A498, 48 h): 15600 nM; IC50 [3]: 28400 ± 1400 nM
13 | 4060 nM | 5.31 nM | 764.8 | CCCCNc1cc(-c2n[nH]c(=S)n2-c2ccccc2)cc(S(N)(=O)=O)c1Oc1ccccc1 [Compound 9a] | –
14 | 5120 nM | 6.36 nM | 804.6 | C=CCn1c(-c2ccc(Cl)cc2)cs/c1=N\NC(=O)c1cc(NCCCC)c(Oc2ccccc2)c(S(N)(=O)=O)c1 [Compound 8d] | –
15 | 1320 nM | 13 nM | 101.6 | CCCCNc1cc(C(=O)N/N=c2\scc(-c3ccc(C)cc3)n2-c2ccccc2)cc(S(N)(=O)=O)c1Oc1ccccc1 [Compound 8b] | –
16 | 205 nM and 209 nM | > 7 nM and 14.3 nM | 14.5 | CCCCNc1cc(C(=O)N/N=c2\scc(-c3ccc(C)cc3)n2-c2ccc(Br)cc2)cc(S(N)(=O)=O)c1Oc1ccccc1 [Compound 8h] | IC50 ([2]; Homo sapiens, A498, 48 h): 6550 ± 260 nM; IC50 [3]: 78040 ± 290 nM
17 | 426 nM | > 7 nM and 10.6 nM | 40.3 | CCCCNc1cc(C(=O)N/N=c2\scc(-c3ccc(OC)cc3)n2-c2ccc(Br)cc2)cc(S(N)(=O)=O)c1Oc1ccccc1 [Compound 8i] | –
18 | 474 nM | 12.6 nM | 37.5 | CCCCNc1cc(C(=O)N/N=c2\scc(-c3ccc(OC)cc3)n2-c2ccccc2)cc(S(N)(=O)=O)c1Oc1ccccc1 [Compound 8c] | –
19 | 999 nM | 13.4 nM | 74.5 | C=CCn1c(-c2ccc(OC)cc2)cs/c1=N\NC(=O)c1cc(NCCCC)c(Oc2ccccc2)c(S(N)(=O)=O)c1 [Compound 8f] | –
20 | 205 nM | 7.25 nM | 28.3 | C=CCn1c(-c2cc(NCCCC)c(Oc3ccccc3)c(S(N)(=O)=O)c2)n[nH]c1=S [Compound 9b] | IC50 ([2]; 48 h): 16100 ± 1400 nM; IC50 ([2]; Homo sapiens, A498, 48 h): 16000 nM; IC50 [3]: 78100 ± 1700 nM
21 | 518 nM | 11.5 nM | 44.9 | C=CCn1c(-c2ccc(C)cc2)cs/c1=N\NC(=O)c1cc(NCCCC)c(Oc2ccccc2)c(S(N)(=O)=O)c1 [Compound 8e] | –
